Reference: publication PMC9800739, “Epigenetic drugs in somatostatin type 2 receptor radionuclide theranostics and radiation transcriptomics in mouse pheochromocytoma models” (Theranostics, 2023)

Legend:
SSTR2 = target: T1, SSTR2 (Mus musculus, UniProt P30875); experiment: Immunoblotting of SSTR2 in cells after epigenetic treatment; format: cell-based
T1 construct: endogenous in cells; host or cells: MPC and MTT mouse pheochromocytoma cells (cell homogenates), untreated or treated with VPA + DAC
Procedure: Cells were seeded into collagen-coated microplates or collagen-coated flasks 24 h before epigenetic treatment (ET) start and treated twice (24 h interval) with VPA and DAC, as single and combination doses, respectively. Treatment effects were investigated two to six days (d) after final ET. Preparation of epigenetic drugs is reported in Supplemental Information 1.1.
Cells seeded into collagen-coated flasks (2.5×10^4/cm^2) were harvested three days after treatment start by incubation with Dulbecco's phosphate-buffered saline containing 2 mmol/L EDTA at 4 °C. Cell pellets were frozen and stored at -70°C. Frozen tumor tissue obtained from allograft mice was cut into 4 × 4 mm pieces.
Protein extraction from cells and tissues, gel electrophoresis, and immunoblotting was performed as described previously with some modifications. In brief, tissue homogenization was performed using the gentleMACS™ dissociator (Miltenyi Biotech, Bergisch Gladbach, Germany). Immunodetection of proteins was performed using the recombinant primary antibodies anti-SSTR2 [UMB1] (Abcam, Cambridge, UK), anti-CHGA [C-20] (Santa Cruz Biotechnology, Heidelberg, Germany), and anti-ACTB [A5316] (Sigma-Aldrich). Densitometric analysis of protein bands was performed using ImageQuant TL (GE Healthcare, Chicago, IL, USA).

[1] = intraperitoneal doses applied; cited from earlier work
Source text: The estimated human equivalent doses corresponded to 20‒30% of the clinically applied tumor-suppressive doses in patients, [45]. Lower doses were used, since we focused on the epigenetic modulation effects rather than the cytotoxic effects of VPA and DAC.

T1 sequence (P30875 whole entry): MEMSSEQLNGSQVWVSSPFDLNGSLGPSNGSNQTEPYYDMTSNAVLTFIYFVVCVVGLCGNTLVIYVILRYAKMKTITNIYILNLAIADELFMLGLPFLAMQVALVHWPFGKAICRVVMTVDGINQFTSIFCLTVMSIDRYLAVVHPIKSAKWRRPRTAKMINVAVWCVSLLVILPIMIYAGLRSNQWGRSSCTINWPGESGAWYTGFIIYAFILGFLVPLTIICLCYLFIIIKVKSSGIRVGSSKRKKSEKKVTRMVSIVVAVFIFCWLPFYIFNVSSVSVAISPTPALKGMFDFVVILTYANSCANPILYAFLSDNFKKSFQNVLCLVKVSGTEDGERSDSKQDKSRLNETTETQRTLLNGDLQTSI

| Structure (SMILES) | induction of SSTR2 protein levels and radiotracer uptake, comparison (SSTR2; MPC and MTT models) | SSTR2 up-regulation compared to controls (SSTR2/ACTB) (SSTR2; MPC cells, DAC 10^-6 mol/L, final ET + 2 d) | time for serum levels to normalize (VPA) [1] |
| --- | --- | --- | --- |
| Nc1ncn([C@H]2C[C@H](O)[C@@H](CO)O2)c(=O)n1 [DAC, 5-Aza-2'-deoxycytidine] | more effectively compared to VPA | 5.3 fold |  |
| CCCC(CCC)C(=O)O [VPA, valproic acid] |  |  | eight |
